Data from BigSolDB 2.1.

Q: For `C[C@@H]1O[C@@H](OC[C@H]2O[C@@H](Oc3c(-c4ccc(OCCO)c(OCCO)c4)oc4cc(OCCO)cc(O)c4c3=O)[C@H](O)[C@@H](O)[C@@H]2O)[C@H](O)[C@H](O)[C@H]1O`, which solubility (mole fraction) (in 1,4-dioxane, 288.15 K) is on record?
A: Its solubility (mole fraction) is 0.000517.

Q: What about the solubility (mole fraction) (in 1,4-dioxane, 293.15 K) of the same compound?
A: Its solubility (mole fraction) is 0.000596.

Q: And the solubility (mole fraction) (in 1,4-dioxane, 298.15 K)?
A: The solubility (mole fraction) was 0.000724.

Q: What about the solubility (mole fraction) (in 1,4-dioxane, 303.15 K) of the same compound?
A: Its solubility (mole fraction) is 0.000865.

Q: What about the solubility (mole fraction) (in 1,4-dioxane, 308.15 K) of the same compound?
A: Its solubility (mole fraction) is 0.00103.

Q: And the solubility (mole fraction) (in 1,4-dioxane, 313.15 K)?
A: Its solubility (mole fraction) is 0.00121.

Q: What about the solubility (mole fraction) (in 1,4-dioxane, 318.15 K) of the same compound?
A: The solubility (mole fraction) was 0.00144.

Q: What about the solubility (mole fraction) (in 1,4-dioxane, 323.15 K) of the same compound?
A: Its solubility (mole fraction) is 0.00171.

Q: And the solubility (mole fraction) (in acetone, 288.15 K)?
A: Its solubility (mole fraction) is 3.1e-05.

Q: What about the solubility (mole fraction) (in acetone, 293.15 K) of the same compound?
A: Its solubility (mole fraction) is 3.4e-05.

Q: What about the solubility (mole fraction) (in acetone, 298.15 K) of the same compound?
A: The solubility (mole fraction) was 4.2e-05.

Q: And the solubility (mole fraction) (in acetone, 303.15 K)?
A: The solubility (mole fraction) was 5.5e-05.

Q: And the solubility (mole fraction) (in acetone, 308.15 K)?
A: The solubility (mole fraction) was 7e-05.

Q: And the solubility (mole fraction) (in acetone, 313.15 K)?
A: Its solubility (mole fraction) is 9.1e-05.

Q: What about the solubility (mole fraction) (in acetone, 318.15 K) of the same compound?
A: Its solubility (mole fraction) is 0.000124.

Q: What about the solubility (mole fraction) (in acetone, 323.15 K) of the same compound?
A: Its solubility (mole fraction) is 0.000162.

Q: And the solubility (mole fraction) (in acetonitrile, 288.15 K)?
A: The solubility (mole fraction) was 8e-06.

Q: What about the solubility (mole fraction) (in acetonitrile, 293.15 K) of the same compound?
A: Its solubility (mole fraction) is 1.2e-05.

Q: What about the solubility (mole fraction) (in acetonitrile, 298.15 K) of the same compound?
A: The solubility (mole fraction) was 1.5e-05.

Q: What about the solubility (mole fraction) (in acetonitrile, 303.15 K) of the same compound?
A: The solubility (mole fraction) was 2.1e-05.

Q: And the solubility (mole fraction) (in acetonitrile, 308.15 K)?
A: The solubility (mole fraction) was 2.8e-05.

Q: And the solubility (mole fraction) (in acetonitrile, 313.15 K)?
A: The solubility (mole fraction) was 3.8e-05.

Q: And the solubility (mole fraction) (in acetonitrile, 318.15 K)?
A: The solubility (mole fraction) was 4.9e-05.

Q: What about the solubility (mole fraction) (in acetonitrile, 323.15 K) of the same compound?
A: The solubility (mole fraction) was 7e-05.

Q: And the solubility (mole fraction) (in ethanol, 288.15 K)?
A: The solubility (mole fraction) was 0.000228.

Q: And the solubility (mole fraction) (in ethanol, 293.15 K)?
A: The solubility (mole fraction) was 0.000252.

Q: What about the solubility (mole fraction) (in ethanol, 298.15 K) of the same compound?
A: Its solubility (mole fraction) is 0.00029.

Q: And the solubility (mole fraction) (in ethanol, 303.15 K)?
A: Its solubility (mole fraction) is 0.000346.

Q: And the solubility (mole fraction) (in ethanol, 308.15 K)?
A: Its solubility (mole fraction) is 0.000407.

Q: What about the solubility (mole fraction) (in ethanol, 313.15 K) of the same compound?
A: Its solubility (mole fraction) is 0.000468.

Q: And the solubility (mole fraction) (in ethanol, 318.15 K)?
A: Its solubility (mole fraction) is 0.000547.

Q: And the solubility (mole fraction) (in ethanol, 323.15 K)?
A: The solubility (mole fraction) was 0.000632.

Q: What about the solubility (mole fraction) (in isobutanol, 288.15 K) of the same compound?
A: The solubility (mole fraction) was 4.1e-05.

Q: And the solubility (mole fraction) (in isobutanol, 293.15 K)?
A: Its solubility (mole fraction) is 5.4e-05.

Q: And the solubility (mole fraction) (in isobutanol, 298.15 K)?
A: Its solubility (mole fraction) is 7e-05.

Q: What about the solubility (mole fraction) (in isobutanol, 303.15 K) of the same compound?
A: Its solubility (mole fraction) is 9e-05.

Q: What about the solubility (mole fraction) (in isobutanol, 308.15 K) of the same compound?
A: Its solubility (mole fraction) is 0.000125.

Q: What about the solubility (mole fraction) (in isobutanol, 313.15 K) of the same compound?
A: The solubility (mole fraction) was 0.000176.

Q: And the solubility (mole fraction) (in isobutanol, 318.15 K)?
A: The solubility (mole fraction) was 0.000238.

Q: And the solubility (mole fraction) (in isobutanol, 323.15 K)?
A: Its solubility (mole fraction) is 0.000312.

Q: And the solubility (mole fraction) (in isopropanol, 288.15 K)?
A: The solubility (mole fraction) was 9.3e-05.

Q: And the solubility (mole fraction) (in isopropanol, 293.15 K)?
A: The solubility (mole fraction) was 0.000119.

Q: And the solubility (mole fraction) (in isopropanol, 298.15 K)?
A: Its solubility (mole fraction) is 0.000161.

Q: What about the solubility (mole fraction) (in isopropanol, 303.15 K) of the same compound?
A: Its solubility (mole fraction) is 0.000207.

Q: What about the solubility (mole fraction) (in isopropanol, 308.15 K) of the same compound?
A: Its solubility (mole fraction) is 0.000268.

Q: What about the solubility (mole fraction) (in isopropanol, 313.15 K) of the same compound?
A: Its solubility (mole fraction) is 0.000329.

Q: What about the solubility (mole fraction) (in isopropanol, 318.15 K) of the same compound?
A: The solubility (mole fraction) was 0.000403.

Q: And the solubility (mole fraction) (in isopropanol, 323.15 K)?
A: The solubility (mole fraction) was 0.000519.

Q: And the solubility (mole fraction) (in methanol, 288.15 K)?
A: The solubility (mole fraction) was 0.000245.

Q: And the solubility (mole fraction) (in methanol, 293.15 K)?
A: Its solubility (mole fraction) is 0.000291.

Q: What about the solubility (mole fraction) (in methanol, 298.15 K) of the same compound?
A: The solubility (mole fraction) was 0.000362.

Q: And the solubility (mole fraction) (in methanol, 303.15 K)?
A: Its solubility (mole fraction) is 0.00045.

Q: What about the solubility (mole fraction) (in methanol, 308.15 K) of the same compound?
A: Its solubility (mole fraction) is 0.000573.

Q: And the solubility (mole fraction) (in methanol, 313.15 K)?
A: Its solubility (mole fraction) is 0.000714.

Q: What about the solubility (mole fraction) (in methanol, 318.15 K) of the same compound?
A: Its solubility (mole fraction) is 0.000876.

Q: And the solubility (mole fraction) (in methanol, 323.15 K)?
A: The solubility (mole fraction) was 0.00107.

Q: And the solubility (mole fraction) (in n-butanol, 288.15 K)?
A: The solubility (mole fraction) was 8e-05.

Q: And the solubility (mole fraction) (in n-butanol, 293.15 K)?
A: Its solubility (mole fraction) is 0.000102.

Q: And the solubility (mole fraction) (in n-butanol, 298.15 K)?
A: Its solubility (mole fraction) is 0.000142.

Q: What about the solubility (mole fraction) (in n-butanol, 303.15 K) of the same compound?
A: The solubility (mole fraction) was 0.000187.

Q: What about the solubility (mole fraction) (in n-butanol, 308.15 K) of the same compound?
A: Its solubility (mole fraction) is 0.000248.

Q: And the solubility (mole fraction) (in n-butanol, 313.15 K)?
A: The solubility (mole fraction) was 0.000312.

Q: And the solubility (mole fraction) (in n-butanol, 318.15 K)?
A: Its solubility (mole fraction) is 0.000382.

Q: What about the solubility (mole fraction) (in n-butanol, 323.15 K) of the same compound?
A: Its solubility (mole fraction) is 0.000494.

Q: And the solubility (mole fraction) (in n-pentanol, 288.15 K)?
A: Its solubility (mole fraction) is 7.1e-05.

Q: What about the solubility (mole fraction) (in n-pentanol, 293.15 K) of the same compound?
A: Its solubility (mole fraction) is 9e-05.

Q: What about the solubility (mole fraction) (in n-pentanol, 298.15 K) of the same compound?
A: Its solubility (mole fraction) is 0.000107.

Q: What about the solubility (mole fraction) (in n-pentanol, 303.15 K) of the same compound?
A: The solubility (mole fraction) was 0.000132.

Q: And the solubility (mole fraction) (in n-pentanol, 308.15 K)?
A: The solubility (mole fraction) was 0.00017.

Q: What about the solubility (mole fraction) (in n-pentanol, 313.15 K) of the same compound?
A: The solubility (mole fraction) was 0.000222.

Q: And the solubility (mole fraction) (in n-pentanol, 318.15 K)?
A: Its solubility (mole fraction) is 0.000289.

Q: And the solubility (mole fraction) (in n-pentanol, 323.15 K)?
A: The solubility (mole fraction) was 0.000377.

Q: And the solubility (mole fraction) (in n-propanol, 288.15 K)?
A: Its solubility (mole fraction) is 0.000144.

Q: What about the solubility (mole fraction) (in n-propanol, 293.15 K) of the same compound?
A: Its solubility (mole fraction) is 0.000177.

Q: And the solubility (mole fraction) (in n-propanol, 298.15 K)?
A: The solubility (mole fraction) was 0.000215.

Q: What about the solubility (mole fraction) (in n-propanol, 303.15 K) of the same compound?
A: The solubility (mole fraction) was 0.000258.

Q: What about the solubility (mole fraction) (in n-propanol, 308.15 K) of the same compound?
A: The solubility (mole fraction) was 0.000317.

Q: And the solubility (mole fraction) (in n-propanol, 313.15 K)?
A: The solubility (mole fraction) was 0.000377.

Q: And the solubility (mole fraction) (in n-propanol, 318.15 K)?
A: Its solubility (mole fraction) is 0.000458.

Q: What about the solubility (mole fraction) (in n-propanol, 323.15 K) of the same compound?
A: The solubility (mole fraction) was 0.000562.

Q: What about the solubility (mole fraction) (in sec-butanol, 288.15 K) of the same compound?
A: Its solubility (mole fraction) is 8.6e-05.

Q: What about the solubility (mole fraction) (in sec-butanol, 293.15 K) of the same compound?
A: The solubility (mole fraction) was 0.000108.

Q: What about the solubility (mole fraction) (in sec-butanol, 298.15 K) of the same compound?
A: The solubility (mole fraction) was 0.00015.

Q: And the solubility (mole fraction) (in sec-butanol, 303.15 K)?
A: The solubility (mole fraction) was 0.000194.

Q: What about the solubility (mole fraction) (in sec-butanol, 308.15 K) of the same compound?
A: The solubility (mole fraction) was 0.000254.

Q: What about the solubility (mole fraction) (in sec-butanol, 313.15 K) of the same compound?
A: The solubility (mole fraction) was 0.000319.

Q: And the solubility (mole fraction) (in sec-butanol, 318.15 K)?
A: Its solubility (mole fraction) is 0.000391.

Q: And the solubility (mole fraction) (in sec-butanol, 323.15 K)?
A: The solubility (mole fraction) was 0.000505.
